What follows are cell lines tested with CC1=C(C(=NN1)C)CC2=C(C3=C(S2)N(C(=O)N(C3=O)C)CC(C)C)C(=O)N4C[C@@H](CO4)O + Cc1nc(NC(=O)N2CCC[C@H]2C(N)=O)sc1-c1ccnc(C(C)(C)C(F)(F)F)c1 [Alpelisib] (partner 2 µM) (assay: relative viability (nuclei count vs DMSO), 5 days (fraction); higher = more cells survive). Conditions: first compound 0.0025 µM.
Summary of the method: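 Medians of duplicate plates are given as relative viability. That measure is the nuclei count in treated wells divided by the count in vehicle wells. Counts were taken on 4× images of lung cancer cell lines in 1536-well plates, 5 days after pin-tool dosing the day after seeding with one drug alone or a fixed anchor-drug dose plus five library-drug doses (not always all listed) in √10 steps.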
For NCI-H727, the relative viability was 0.535.
Work on EBC-1 yielded a relative viability of 0.973.
NCI-H1703 showed a relative viability of 0.366.
For NCI-H1993, the relative viability was 0.69.
SW 1573 was tested, and the relative viability was 0.756.
Work on NCI-H838 yielded a relative viability of 1.05.
With LCLC-103H the relative viability was 1.06.
In the case of NCI-H520, the relative viability is reported as 0.835.
For NCI-H2126, the relative viability was 0.773.
With EMC-BAC-2 the relative viability was 0.809.
Work on NCI-H2085 yielded a relative viability of 0.989.
For Calu-6, the relative viability was 1.3.
HCC-366 gave a relative viability of 0.489.
NCI-H1666 gave a relative viability of 1.06.
NCI-H596 showed a relative viability of 0.474.
Work on LK-2 yielded a relative viability of 1.06.
Work on NCI-H2087 yielded a relative viability of 0.952.
SK-MES-1 gave a relative viability of 0.964.
H3255 was tested, and the relative viability was 0.768.
COR-L23 was tested, and the relative viability was 0.782.
COR-L 105 showed a relative viability of 1.03.
IA-LM showed a relative viability of 0.832.
With NCI-H2170 the relative viability was 0.918.
With A549 the relative viability was 0.838.
HCC-78 was tested, and the relative viability was 0.409.
In the case of NCI-H1299, the relative viability is reported as 1.07.
For NCI-H1563, the relative viability was 1.
Work on ABC-1 yielded a relative viability of 1.04.

Same assay, conditions: first compound 0.007906 µM
Work on NCI-H727 yielded a relative viability of 0.512.
In the case of EBC-1, the relative viability is reported as 0.973.
In the case of NCI-H1703, the relative viability is reported as 0.211.
Work on NCI-H1993 yielded a relative viability of 0.608.
Cell Line SW 1573 has a relative viability of 0.699.
NCI-H838 showed a relative viability of 1.05.
LCLC-103H was tested, and the relative viability was 1.
NCI-H520 was tested, and the relative viability was 1.04.
Cell Line NCI-H2126 has a relative viability of 0.847.
EMC-BAC-2 showed a relative viability of 0.854.
NCI-H2085 showed a relative viability of 0.975.
Cell Line Calu-6 has a relative viability of 0.898.
In the case of HCC-366, the relative viability is reported as 0.475.
NCI-H1666 showed a relative viability of 1.01.
With NCI-H596 the relative viability was 0.53.
In the case of LK-2, the relative viability is reported as 1.03.
NCI-H2087 showed a relative viability of 1.03.
Cell Line SK-MES-1 has a relative viability of 0.997.
H3255 showed a relative viability of 0.676.
Cell Line COR-L23 has a relative viability of 0.709.
COR-L 105 gave a relative viability of 0.896.
For IA-LM, the relative viability was 0.812.
NCI-H2170 showed a relative viability of 0.868.
A549 showed a relative viability of 0.96.
For HCC-78, the relative viability was 0.343.
With NCI-H1299 the relative viability was 1.08.
In the case of NCI-H1563, the relative viability is reported as 0.847.
With ABC-1 the relative viability was 1.07.

Same assay, conditions: first compound 0.025 µM
For NCI-H727, the relative viability was 0.731.
EBC-1 showed a relative viability of 0.765.
Work on NCI-H1703 yielded a relative viability of 0.32.
For NCI-H1993, the relative viability was 0.719.
For SW 1573, the relative viability was 0.764.
With NCI-H838 the relative viability was 0.989.
LCLC-103H showed a relative viability of 0.959.
NCI-H520 gave a relative viability of 0.612.
NCI-H2126 gave a relative viability of 0.732.
Work on EMC-BAC-2 yielded a relative viability of 0.721.
NCI-H2085 was tested, and the relative viability was 0.831.
For Calu-6, the relative viability was 0.892.
HCC-366 gave a relative viability of 0.396.
NCI-H1666 showed a relative viability of 1.02.
For NCI-H596, the relative viability was 0.482.
LK-2 gave a relative viability of 1.09.
NCI-H2087 was tested, and the relative viability was 1.12.
In the case of SK-MES-1, the relative viability is reported as 1.04.
In the case of H3255, the relative viability is reported as 0.697.
In the case of COR-L23, the relative viability is reported as 0.59.
COR-L 105 showed a relative viability of 1.12.
Cell Line IA-LM has a relative viability of 0.858.
NCI-H2170 showed a relative viability of 0.705.
A549 was tested, and the relative viability was 0.744.
For HCC-78, the relative viability was 0.315.
NCI-H1299 was tested, and the relative viability was 1.01.
NCI-H1563 showed a relative viability of 0.954.
ABC-1 showed a relative viability of 1.14.

Same assay, conditions: first compound 0.07906 µM
For NCI-H727, the relative viability was 0.55.
EBC-1 showed a relative viability of 0.822.
For NCI-H1703, the relative viability was 0.309.
Work on NCI-H1993 yielded a relative viability of 0.615.
SW 1573 showed a relative viability of 0.715.
Work on NCI-H838 yielded a relative viability of 0.967.
For LCLC-103H, the relative viability was 0.957.
Work on NCI-H520 yielded a relative viability of 0.536.
NCI-H2126 showed a relative viability of 0.736.
For EMC-BAC-2, the relative viability was 0.691.
NCI-H2085 was tested, and the relative viability was 0.855.
For Calu-6, the relative viability was 0.895.
In the case of HCC-366, the relative viability is reported as 0.54.
In the case of NCI-H1666, the relative viability is reported as 1.13.
For NCI-H596, the relative viability was 0.567.
LK-2 showed a relative viability of 1.05.
In the case of NCI-H2087, the relative viability is reported as 1.31.
With SK-MES-1 the relative viability was 0.878.
Work on H3255 yielded a relative viability of 0.759.
COR-L23 showed a relative viability of 0.759.
COR-L 105 was tested, and the relative viability was 1.01.
In the case of IA-LM, the relative viability is reported as 0.749.
Cell Line NCI-H2170 has a relative viability of 0.819.
A549 gave a relative viability of 0.758.
Cell Line HCC-78 has a relative viability of 0.319.
NCI-H1299 was tested, and the relative viability was 1.09.
In the case of NCI-H1563, the relative viability is reported as 0.959.
ABC-1 was tested, and the relative viability was 1.01.

Same assay, conditions: first compound 0.25 µM
For NCI-H727, the relative viability was 0.666.
EBC-1 showed a relative viability of 0.814.
In the case of NCI-H1703, the relative viability is reported as 0.299.
For NCI-H1993, the relative viability was 0.722.
With SW 1573 the relative viability was 0.917.
Work on NCI-H838 yielded a relative viability of 0.974.
LCLC-103H gave a relative viability of 0.896.
Work on NCI-H520 yielded a relative viability of 0.836.
NCI-H2126 was tested, and the relative viability was 0.682.
Work on EMC-BAC-2 yielded a relative viability of 0.814.
NCI-H2085 showed a relative viability of 0.873.
With Calu-6 the relative viability was 1.09.
With HCC-366 the relative viability was 0.49.
With NCI-H1666 the relative viability was 0.953.
Work on NCI-H596 yielded a relative viability of 0.589.
LK-2 showed a relative viability of 1.08.
NCI-H2087 was tested, and the relative viability was 1.18.
SK-MES-1 gave a relative viability of 1.01.
H3255 was tested, and the relative viability was 0.736.
Cell Line COR-L23 has a relative viability of 0.739.

Reference: the supplement of paper PMC10307832
